Legend:
[1] = test system: E. coli O157:H7; assay: E. coli O157:H7 on alfalfa seeds with an initial inoculum of 10^4 CFU/g; type: cell-based, Escherichia coli O157:H7
[2] = test system: S. typhimurium DT 104; assay: Salmonella on alfalfa seeds with an initial inoculum of 10^4 CFU/g; type: cell-based, Salmonella typhimurium DT104
Protocol: Five isolates of Escherichia coli O157:H7, including strain 932 (human isolate), E009 (beef isolate), E0018 (cattle isolate), E0122 (cattle isolate), E0139 (deer jerky isolate); and five isolates of Salmonella typhimurium DT104, including strain H2662 (cattle isolate), 11942A (cattle isolate), 13068A (cattle isolate), 152N17-1 (dairy isolate) and H3279 (human isolate) were used. Nalidixic acid-resistant (50 μg/ml) E. coli O157:H7 were used to facilitate enumeration. Each E. coli O157:H7 and Salmonella strain was grown in tryptic soy broth (TSB, Beckon Dickinson, Sparks, Md.) at 37° C. for 18 hr. Approximately equal cell numbers of each of the five strains were combined and used as a 5-strain mixture with cell numbers being adjusted by spectrophotometric (Spectronic Instruments, Rochester, N.Y.) determination as described in Zhao et al., (2009) J. Food Prot. 72: 928-936, incorporated herein by reference in its entirety. Bacterial cell numbers were confirmed by plating 0.1 ml of serial dilutions (1:10) in 0.1% peptone on tryptic soy agar (TSA, Beckon Dickinson) and Sorbitol MacConkey agar (SMA, Oxoid, Hampshire, UK) for E. coli O157:H7, and TSA and XLD agar (Beckon Dickinson) for Salmonella and incubating all plates at 37° C. for 24 hr, after which colonies were counted.
Levulinic acid (0.5%) and 0.05% sodium dodecyl sulfate (SDS) obtained from Sigma-Aldrich (St. Louis, Mo.) were tested in combination at 21±2° C. for their antimicrobial activity to E. coli O157:H7 and S. typhimurium on alfalfa seeds as a wash treatment. Calcium hypochlorite (Arch Chemicals, Smyrna, Ga.) at 20,000 μg/ml (ppm) was used as the positive control, and deionized water was used as the negative control.
Before each trial, 25 ml of sterile tap water and 25 g of alfalfa seeds were added to a WHIRL-PAK® bag (Nasco, Fort Atkinson, Wis.) and pummeled in a stomacher blender at 150 rpm for 1 min. Duplicate 0.1 ml portions of the contents were plated on SMA, XLD, and TSA plates to detect E. coli O157:H7 and Salmonella, and enumerate aerobic bacteria counts according to the protocols described below. Only E. coli O157:H7-negative and Salmonella-negative alfalfa seeds were used. Dry seeds (50 g) were individually placed in a sterilized glass beaker (1 L) and 5 ml of a mixture of E. coli O157:H7 or S. typhimurium DT 104 (high inocula at 10^8-10^9 CFU/ml and low inocula at 10^3-10^4 CFU/ml) was inoculated on the surface of the seeds in each glass beaker under a laminar flow hood. A sterile plastic spoon was used to mix for 2 min the seeds with bacterial suspension. […]
Inactivation of E. coli O157:H7 and Salmonella on Alfalfa Seeds: Inoculated, dried alfalfa seeds (50 g samples) were placed in a 1000 ml glass beaker containing 200 ml of treatment solution and agitated by a magnetic stir bar at 150 ppm at 21° C. for 0, 1, 2, 5, 10, 20, 30, and 60 min. Following treatment, 25 g of seeds was placed in a stomacher bag containing 25 ml 0.1M phosphate buffer, pH 7.2 (PBS) for levulinic acid plus SDS-treated seeds or neutralizing buffer ([…], Ltd., Worthing, England). The suspension was serially (1:10) diluted in 0.1% peptone water and 0.1 ml of each dilution was surface-plated in duplicate onto TSA and Sorbitol MacConkey agar containing 50 μg nalidixic acid/ml (TSA-NA and SMA-NA) for E. coli O157:H7, and on TSA and XLD containing ampicillin (32 μg/ml), tetracycline (16 μg/ml) and streptomycin (64 μg/ml) (TSA+ and XLD+) for S. typhimurium DT 104. All plates were incubated at 37° C. for 48 hr.

[3] = 10 min in glass beaker then pummeled 10 min in stomacher bag
[4] = dried at 21° C. for 2 hr, treated for 20 min (10 min in beaker and 10 min in a stomacher bag) at 21° C.
[5] = none pathogen-positive by direct plating

In the case of [Ca+2].[O-]Cl.[O-]Cl [20,000 ppm, Ca(OCl)2, pH 11.4, Calcium hypochlorite], the “E. coli O157:H7 on treated seeds by direct plating method” value [1, 3] is reported as “negative”, the “E. coli O157:H7 count in sample No. 1-10 (seeds)” value [1, 4] is reported as “−” and the “E. coli O157:H7 count in sample No. 1-10 (treated supernatant)” value [1, 4] is reported as “−”. For the same molecule, the “E. coli O157:H7 in solutions used for treatment” value ([1]; enrichment culture after use) was “negative”, the “E. coli O157:H7 detection in samples treated for 10 min” value [1, 5] was “sporadically positive by enrichment culture assay” and the “Salmonella on treated seeds by direct plating method” value [2, 3] was “negative”. The “S. typhimurium DT 104 count in sample No. 1-10 (seeds)” value [2, 4] was “−”, the “S. typhimurium DT 104 count in sample No. 1-10 (treated supernatant)” value [2, 4] was “−” and the “Salmonella in solutions used for treatment” value ([2]; enrichment culture after use) was “negative”. For the same molecule, the “Salmonella detection in samples treated for 10 min” value [2, 5] was “sporadically positive by enrichment culture assay”.

— patent US20130005811A1, “ANTIMICROBIAL TREATMENT FOR SEEDS AND SPROUTS” (priority 2010, published 2013)
